# Test results published in US20240002441A1, “PEPTIDES AND USES THEREOF IN MODULATION OF AMYLOID-BETA PROTEIN DEGRADING PROTEASES” (priority 2020, published 2024).
# Assays:
# [1] = biological target: T1, ACE1 (Homo sapiens, UniProt P12821); test: QFS assay of Aβ-degrading enzymes: ACE1 (Example 6); type: biochemical
# T1 construct: purchased Sigma Aldrich SRP6270-10UG
# Protocol: (§1) Plate reader-based enzyme assays were performed using a quenched fluorescent substrate (QFS) in a 96-well format using a SpectraMAX M4 Microplate reader (Molecular Devices). The increase in fluorescence following addition of QFS (40 μM) was taken as evidence of enzyme activity. Fluorescence was monitored over 2 h at 37° C. using κEx=320 nm and λEm=405 nm. Assays were conducted in black 96-well plates. Specific enzyme activity was expressed as a rate of substrate cleavage calculated using a standard curve of 7-methoxy-coumarin-4-acetic acid.
# (§2) In all plate reader-based enzyme assays using QFS, the reaction rate (μmol of substrate cleaved/min) was calculated using linear regression analysis (GraphPad Prism software version 8.01). The reaction rates calculated were used to generate the enzyme kinetic parameters Vmax and Km through non-linear regression analysis (GraphPad Prism software, version 8.01; Michaelis-Menten equation). Where indicated, enzyme activity in the presence of peptide was expressed as a % of the enzyme alone. Data were expressed as mean±SEM and statistical significance was determined using t-tests or one-way ANOVAs followed by Tukey's post-hoc test. P<0.05 was considered as statistically significant. In all assays conducted using 96-well plates, the reaction mixtures in each well were considered an independent experiment.
# (§3) SEQ ID NO:2 was assessed in a QFS assay against enzymes NEP, ECE1, ECE2, ACE1, ACE2, IDE and MMP-2 using the method in Example 2 and the following procedure. NEP, ACE1, ECE2 (0.05 ng/μL), ACE2, IDE (0.10 ng/μL), and ECE1 (6.4 ng/μL) were incubated with SEQ ID NO:2 (0.9-26 μM) or scrambled control (9 μM) for 1 h at 37° C. Prior to use, MMP2 (0.50 ng/μL) was activated using p-aminophenylmercuric acetate to a final concentration of 100 μM for 1 h at 37° C. Following activation, MMP2 was incubated with SEQ ID NO:2 for 1 h at 37° C. before adding the appropriate QFS.
# [2] = system: HEK293 cells; test: Peptide stability study in HEK293 cells, LCMS (Example 4); type: in vitro ADME; conditions: peptide 9 μM, Opti-MEM, 60 min
# Protocol: SEQ ID NO:2 was prepared as a C-terminal amidated analogue of SEQ ID NO:1. The stability of SEQ ID NO:1 and SEQ ID NO:2 was assessed in HEK293 and EA.hy926 cells grown in culture and their break down was monitored by LCMS over 60 min using the following procedure.
# (§4) HEK293 (passage 24) or Ea.hy926 (passage 37) were seeded into tissue-culture-grade 96-well plates at a density of 20,000 cells/well. After 24 hr, cells were washed with PBS and replaced with Opti-MEM reduced serum media containing SEQ ID NO:1 or SEQ ID NO:2 (9 μM). Aliquots of equal volume were taken at T=0 and 60 min. SEQ ID NO:2 was added to control wells having media (no cells) only. Samples were immediately acidified in 0.1% TFA, snap frozen in dry ice and stored in −80° C. until analysed by LCMS.
# (§5) Samples were analyzed by LC-MS/MS on a Shimadzu Nexera uHPLC (Japan) coupled to a Triple Tof 5600 mass spectrometer (ABSCIEX, Canada) equipped with a duo electrospray ion source. One μL of each extract was injected onto a 2.1 mm×100 mm Zorbax C18 1.8 um column (Agilent) at 200 μL/min. […] SEQ ID NO:1 and SEQ ID NO:2 were quantified using the […] doubly charged molecular ion from m/z 510.270 to 510.325. The data was acquired using Analyst TF 1.6 and quantification was carried out using MultiQuant 2.1.1 software (ABSCIEX, Canada).
# [3] = biological target: T2, ECE2 (Homo sapiens, UniProt P0DPD6); test: QFS assay of Aβ-degrading enzymes: ECE2 (Example 6); type: biochemical
# T2 construct: purchased R & D systems 1645-ZN-010
# T2 sequence (P0DPD6 1-811): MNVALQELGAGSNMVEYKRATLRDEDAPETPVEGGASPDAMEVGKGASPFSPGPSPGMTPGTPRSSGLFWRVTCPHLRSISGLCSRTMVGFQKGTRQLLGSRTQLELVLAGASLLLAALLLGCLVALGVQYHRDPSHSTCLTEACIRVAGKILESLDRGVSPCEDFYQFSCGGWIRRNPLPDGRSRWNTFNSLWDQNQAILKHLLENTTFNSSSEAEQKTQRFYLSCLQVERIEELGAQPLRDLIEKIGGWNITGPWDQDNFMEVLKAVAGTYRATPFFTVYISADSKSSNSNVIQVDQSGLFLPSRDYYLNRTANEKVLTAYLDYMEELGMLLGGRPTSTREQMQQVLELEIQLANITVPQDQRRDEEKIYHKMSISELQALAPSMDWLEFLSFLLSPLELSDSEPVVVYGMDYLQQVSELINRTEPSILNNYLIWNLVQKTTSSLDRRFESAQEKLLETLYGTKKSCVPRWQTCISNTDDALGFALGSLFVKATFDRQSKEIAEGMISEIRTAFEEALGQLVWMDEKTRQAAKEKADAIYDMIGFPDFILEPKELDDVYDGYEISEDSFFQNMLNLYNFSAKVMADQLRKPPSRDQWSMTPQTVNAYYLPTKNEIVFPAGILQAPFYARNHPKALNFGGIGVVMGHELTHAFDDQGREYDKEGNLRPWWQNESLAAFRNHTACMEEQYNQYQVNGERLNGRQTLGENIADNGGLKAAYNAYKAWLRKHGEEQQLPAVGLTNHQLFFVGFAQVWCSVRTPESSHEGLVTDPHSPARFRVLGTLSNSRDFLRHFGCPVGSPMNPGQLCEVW
# Protocol: as §1
# as §2, with “In all assays conducted using 96-well plates, the reaction mixtures in each well were considered an independent experiment.” left out
# SEQ ID NO:2 was assessed in a QFS assay against enzymes NEP, ECE1, ECE2, ACE1, ACE2, IDE and MMP-2 using the method in Example 2 and the following procedure. […]
# [4] = biological target: T3, ACE2 (Homo sapiens, UniProt Q9BYF1); test: QFS assay of Aβ-degrading enzymes: ACE2 (Example 6); type: biochemical
# T3 construct: purchased R & D systems 933-ZN-010
# Protocol: as §1, §2, §3
# [5] = Peptide stability control, medium with no cells (Example 4); type: in vitro ADME; conditions: media only (no cells), possible adherence to plastic
# Protocol: as §4
# as §5, with “μL/min. Linear gradients of 1-50% solvent B over 7 min at 200 uL/min flow rate, followed by a steeper gradient from 50% to 98% solvent B in 1 min were used for peptide elution. Solvent B was held at 98% for 3 min for washing the column and returned to 1% solvent B for equilibration prior to the next sample injection.” for “μL/min.”
# T3 sequence (Q9BYF1 18-805): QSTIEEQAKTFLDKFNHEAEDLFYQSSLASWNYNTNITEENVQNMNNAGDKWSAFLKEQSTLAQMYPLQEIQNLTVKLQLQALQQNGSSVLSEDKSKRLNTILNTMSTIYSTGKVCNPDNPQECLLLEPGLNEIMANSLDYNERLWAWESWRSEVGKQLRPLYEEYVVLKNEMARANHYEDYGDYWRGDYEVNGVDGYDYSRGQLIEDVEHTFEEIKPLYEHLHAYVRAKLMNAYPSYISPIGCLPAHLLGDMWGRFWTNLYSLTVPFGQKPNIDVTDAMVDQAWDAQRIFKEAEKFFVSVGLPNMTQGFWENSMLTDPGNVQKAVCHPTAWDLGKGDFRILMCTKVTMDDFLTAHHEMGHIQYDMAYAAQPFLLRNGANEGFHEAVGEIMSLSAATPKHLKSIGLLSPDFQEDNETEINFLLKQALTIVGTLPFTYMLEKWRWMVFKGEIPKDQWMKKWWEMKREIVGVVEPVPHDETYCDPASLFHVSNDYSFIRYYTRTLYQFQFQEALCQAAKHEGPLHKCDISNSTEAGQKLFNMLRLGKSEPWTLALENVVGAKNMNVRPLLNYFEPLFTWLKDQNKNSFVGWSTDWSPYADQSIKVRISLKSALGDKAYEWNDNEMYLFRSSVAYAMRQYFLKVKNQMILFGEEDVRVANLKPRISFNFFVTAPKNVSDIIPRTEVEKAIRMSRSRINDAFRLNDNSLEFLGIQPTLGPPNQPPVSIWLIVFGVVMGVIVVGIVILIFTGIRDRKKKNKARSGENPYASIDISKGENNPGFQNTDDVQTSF
# T1 sequence (P12821 30-1306): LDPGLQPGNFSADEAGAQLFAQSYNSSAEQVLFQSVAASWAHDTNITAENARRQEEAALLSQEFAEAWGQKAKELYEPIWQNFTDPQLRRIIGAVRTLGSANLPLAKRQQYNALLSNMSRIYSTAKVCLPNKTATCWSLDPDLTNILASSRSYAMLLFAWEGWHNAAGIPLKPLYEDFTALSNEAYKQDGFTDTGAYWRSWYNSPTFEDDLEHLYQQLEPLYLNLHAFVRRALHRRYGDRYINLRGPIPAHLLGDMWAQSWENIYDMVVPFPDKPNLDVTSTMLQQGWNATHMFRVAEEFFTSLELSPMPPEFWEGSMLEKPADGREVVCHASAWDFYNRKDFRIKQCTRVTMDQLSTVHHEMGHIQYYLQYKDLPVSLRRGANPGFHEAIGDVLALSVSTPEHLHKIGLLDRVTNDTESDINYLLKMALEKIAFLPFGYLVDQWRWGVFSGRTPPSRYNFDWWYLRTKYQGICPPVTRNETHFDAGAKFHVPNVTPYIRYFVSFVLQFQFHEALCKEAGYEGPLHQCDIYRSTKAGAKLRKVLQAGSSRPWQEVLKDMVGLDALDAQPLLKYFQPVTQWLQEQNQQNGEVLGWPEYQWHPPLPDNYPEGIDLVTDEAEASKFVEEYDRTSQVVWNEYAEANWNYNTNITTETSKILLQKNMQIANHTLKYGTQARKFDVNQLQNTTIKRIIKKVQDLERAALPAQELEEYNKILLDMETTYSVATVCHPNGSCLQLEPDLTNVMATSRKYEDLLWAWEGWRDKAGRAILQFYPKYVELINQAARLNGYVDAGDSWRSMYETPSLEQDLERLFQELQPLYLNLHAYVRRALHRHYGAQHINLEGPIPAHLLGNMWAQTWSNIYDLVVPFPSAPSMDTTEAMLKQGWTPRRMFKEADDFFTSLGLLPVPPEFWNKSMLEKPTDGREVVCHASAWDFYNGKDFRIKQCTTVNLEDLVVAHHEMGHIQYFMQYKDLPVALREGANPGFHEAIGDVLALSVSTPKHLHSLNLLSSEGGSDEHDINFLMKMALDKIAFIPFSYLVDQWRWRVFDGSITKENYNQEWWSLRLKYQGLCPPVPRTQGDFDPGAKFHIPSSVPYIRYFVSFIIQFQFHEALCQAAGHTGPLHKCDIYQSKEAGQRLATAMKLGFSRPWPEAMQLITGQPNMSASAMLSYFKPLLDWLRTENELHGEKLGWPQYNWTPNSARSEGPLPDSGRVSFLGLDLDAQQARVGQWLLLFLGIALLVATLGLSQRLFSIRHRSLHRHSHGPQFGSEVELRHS
substance,measurement,setting,value
"H-SLFELGKMIL-NH2 [SEQ ID NO:2, H2N-SLFELGKMIL-NH2]",ACE1 activity compared with respective enzyme alone,[1]; peptide 2 μM (FIG. 2c),significantly increased
same,ACE1 activity compared with respective enzyme alone,"[1]; peptide 9 μM, significantly less compared with ACE2 and NEP",significantly higher
same,"ACE1 activity, concentration dependence",[1]; peptide 0.9-26 μM,increased the activity
same,amount remaining in the medium of HEK293 cells,[2],54%±4%
same,ECE2 activity compared with respective enzyme alone,[3]; peptide 2 μM (FIG. 2c),did not increase
same,"ECE2 activity, concentration dependence",[3]; peptide 0.9-26 μM,did not affect
same,ACE2 activity compared with respective enzyme alone,[4]; peptide 2 μM (FIG. 2c),significantly increased
same,activity of ACE2 as % of enzyme alone controls,[4]; peptide 9 μM,283%
same,"ACE2 activity, concentration dependence",[4]; peptide 0.9-26 μM,increased the activity
same,amount remaining in the medium with no cells after 60 min,[5],63%±14%
